Experimental data from patent US8410302B2, “Methoxyimino compounds and fungicide composition comprising same” (Kyung Nong Corporation, priority 2007, dated 2013).

What was measured:
Phytophthora infestans = experiment: whole plant or invertebrate; format: in vivo; details: tomato late blight
Rhizoctonia solani AG-1 = experiment: Fungicidal activity against rice sheath blight (RSB) disease, control value; details: 100 ppm, rice sheath blight
Botrytis cinerae = experiment: Fungicidal activity against cucumber gray mold rot (CGM) disease, control value; format: in vivo; details: 100 ppm, cucumber gray mold rot
Puccinia recondita = experiment: Fungicidal activity against wheat leaf rust (WLR) disease, control value; format: in vivo; details: wheat leaf rust
[1] = system: Pyricularia oryzae Carvara KA301; experiment: whole plant or invertebrate; format: in vivo; details: rice blast
Erysiphae graminis = experiment: Fungicidal activity against barley powdery mildew (BPM) disease, control value; format: in vivo; details: barley powdery mildew

Structure (SMILES) | TLB control value (C.V.) (Phytophthora infestans; 50 ppm) | TLB control value (C.V.) (Phytophthora infestans; 100 ppm) | RSB control value (C.V.) (Rhizoctonia solani AG-1) | CGM control value (C.V.) (Botrytis cinerae) | WLR control value (C.V.) (Puccinia recondita; 100 ppm) | RCB control value (C.V.) ([1]; 50 ppm) | RCB control value (C.V.) ([1]; 100 ppm) | BPM control value (C.V.) (Erysiphae graminis; 100 ppm) | WLR control value (C.V.) (Puccinia recondita; 50 ppm) | TLB control value (C.V.) (Phytophthora infestans; 10 ppm) | WLR control value (C.V.) (Puccinia recondita; 2 ppm) | WLR control value (C.V.) (Puccinia recondita; 10 ppm) | RCB control value (C.V.) ([1]; 2 ppm) | RCB control value (C.V.) ([1]; 10 ppm) | BPM control value (C.V.) (Erysiphae graminis; 2 ppm) | BPM control value (C.V.) (Erysiphae graminis; 10 ppm) | BPM control value (C.V.) (Erysiphae graminis; 50 ppm)
CNC(=O)/C(=N/OC)c1ccccc1CON=C(C)c1cccc(C=C(F)Cl)c1 [Example 32, (E)-2-[[[[[2-[3-(2-chloro-2-fluorovinyl)phenyl](1-methyl)methylidene]amino]oxy]methyl]phenyl]-2-methoxyimino-N-methylacetamide] | 55% | 93% | 65% | 34% | 82% | 90% | 97% | 80% |  |  |  |  |  |  |  |  | 
CO/N=C(/C(=O)OC)c1ccccc1CON=C(C)c1ccc(C=C(F)Cl)cc1 [Example 33, methyl-(E)-2-[[[[[2-[4-(2-chloro-2-fluorovinyl)phenyl](1-methyl)methylidene]amino]oxy]methyl]phenyl]-2-methoxyiminoacetate] |  | 60% | 67% | 15% | 90% | 70% | 95% | 80% | 40% |  |  |  |  |  |  |  | 
CNC(=O)/C(=N/OC)c1ccccc1CON=C(C)c1ccc(C=C(F)Cl)cc1 [Example 34, (E)-2-[[[[[2-[4-(2-chloro-2-fluorovinyl)phenyl](1-methyl)methylidene]amino]oxy]methyl]phenyl]-2-methoxyimino-N-methylacetamide] | 35% | 98% | 15% | 40% | 72% | 90% | 95% | 60% |  |  |  |  |  |  |  |  | 
CO/N=C(/C(=O)OC)c1ccccc1CON=C(C)c1cccc(C=C(Cl)Br)c1 [Example 35, methyl-(E)-2-[[[[[2-[3-(2-bromo-2-chlorovinyl)phenyl](1-methyl)methylidene]amino]oxy]methyl]phenyl]-2-methoxyiminoacetate] | 90% | 100% | 10% | 50% | 100% | 100% | 100% | 95% | 100% | 10% | 100% | 100% | 70% | 100% | 15% | 60% | 93%
